Measurements reported in patent US11795460B2, “Compositions and methods for TTR gene editing and treating ATTR amyloidosis” (Intellia Therapeutics, Inc., priority 2017, dated 2023).

Columns and labels:
TTR [1] = test: TTR editing in primary cyno hepatocytes electroporated with Spy Cas9 protein and dgRNAs (Tables 10, 11); format: cell-based, cynomolgus monkey; details: primary cyno hepatocytes electroporated with Spy Cas9 protein (RNP) and cyno specific dgRNAs
Procedure: (§1) Primary liver hepatocytes. Primary human liver hepatocytes (PHH) and primary cynomolgus liver hepatocytes (PCH) (Gibco) were cultured per the manufacturer's protocol (Invitrogen, protocol 11.28.2012). In brief, the cells were thawed and resuspended in hepatocyte thawing medium with supplements (Gibco, Cat. CM7000) followed by centrifugation at 100 g for 10 minutes for human and 80 g for 4 minutes for cyno. The supernatant was discarded and the pelleted cells resuspended in hepatocyte plating medium plus supplement pack (Invitrogen, Cat. A1217601 and CM3000). Cells were counted and plated on Bio-coat collagen I coated 96-well plates (ThermoFisher, Cat. 877272) at a density of 33,000 cells/well for human or 60,000 cells/well for cyno (or 65,000 cells/well when assaying effects on TTR protein, described further below). Plated cells were allowed to settle and adhere for 6 or 24 hours in a tissue culture incubator at 37° C. and 5% CO2 atmosphere. After incubation cells were checked for monolayer formation and media was replaced with hepatocyte culture medium with serum-free supplement pack (Invitrogen, Cat. A1217601 and CM4000).
(§2) […] formation was performed prior to electroporation or transfection of Spy Cas9 protein loaded with guide RNAs (RNPs) onto cells. For dual guide (dgRNAs), individual crRNA and trRNA was pre-annealed by mixing equivalent amounts of reagent and incubating at 95° C. for 2 min and cooling to room temperature. Single guide (sgRNAs) were boiled at 95° C. for 2 min and cooling to room temperature. The boiled dgRNA or sgRNA was incubated with Spy Cas9 protein in Optimem for 10 minutes at room temperature to form a ribonucleoprotein (RNP) complex.
(§3) For RNP electroporation into primary human and cyno hepatocytes, the cells are thawed and resuspended in Lonza electroporation Primary Cell P3 buffer at a concentration of 2500 cells per μL for human hepatocytes and 3500 cells per μL for cyno hepatocytes. A volume of 20 μL of resuspended cells and 5 μL of RNP are mixed together per guide. 20 μL of the mixture is placed into a Lonza electroporation plate. The cells were electroporated using the Lonza nucleofector with the preset protocol EX-147. Post electroporation, the cells are transferred into a Biocoat plate containing pre-warmed maintenance media and placed in a tissue culture incubator at 37° C. and 5% CO2.
(§4) Transfected cells were harvested post-transfection at 24, 48, or 72 hours. The genomic DNA was extracted from each well of a 96-well plate using 50 μL/well BuccalAmp DNA Extraction solution (Epicentre, Cat. QE09050) per manufacturer's protocol. All DNA samples were subjected to PCR and subsequent NGS analyses, as described herein.
(§5) To quantitatively determine the efficiency of editing at the target location in the genome, sequencing was utilized to identify the presence of insertions and deletions introduced by gene editing.
(§6) Primers were designed around the target site within the gene of interest (e.g. TTR), and the genomic area of interest was amplified.
(§7) Additional PCR was performed per the manufacturer's protocols (Illumina) to add chemistry for sequencing. The amplicons were sequenced on an Illumina MiSeq instrument. The reads were aligned to a reference genome (e.g., the human reference genome (hg38), the cynomologus reference genome (mf5), the rat reference genome (rn6), or the mouse reference genome (mm10)) after eliminating those having low quality scores. The resulting files containing the reads were mapped to the reference genome (BAM files), where reads that overlapped the target region of interest were selected and the number of wild type reads versus the number of reads which contain an insertion, substitution, or deletion was calculated.
(§8) The editing percentage (e.g., the “editing efficiency” or “percent editing” or “indel frequency”) is defined as the total number of sequence reads with insertions/deletions (“indels”) or substitutions over the total number of sequence reads, including wild type. […]

TTR [2] = test: TTR editing in HEK293_Cas9 cells transfected with dgRNAs (Table 4); format: cell-based, human; details: HEK293_Cas9 cells (constitutively express Spy Cas9) transfected with dgRNAs
Procedure: HEK293 Cas9 cell line. The human embryonic kidney adenocarcinoma cell line HEK293 constitutively expressing Spy Cas9 (“HEK293_Cas9”) was cultured in DMEM media supplemented with 10% fetal bovine serum and 500 μg/ml G418. Cells were plated at a density of 10,000 cells/well in a 96-well plate 24 hours prior to transfection. Cells were transfected with Lipofectamine RNAiMAX (ThermoFisher, Cat. 13778150) per the manufacturer's protocol. Cells were transfected with a lipoplex containing individual crRNA (25 nM), trRNA (25 nM), Lipofectamine RNAiMAX (0.3 μL/well) and OptiMem.
as §4, §5, §6, §7
(§9) The editing percentage (e.g., the “editing efficiency” or “percent editing” or “indel frequency”) is defined as the total number of sequence reads with insertions/deletions (“indels”) or substitutions over the total number of sequence reads, including wild type.
(§10) Guides in dgRNA format targeting human TTR and the cynomologus matched sequences were delivered to HEK293 Cas9, HUH7 and HepG2 cell lines, as well as primary human hepatocytes and primary cynomolgus monkey hepatocytes as described in Example 1. Percent editing was determined for crRNAs comprising each guide sequence across each cell type and the guide sequences were then rank ordered based on highest % edit. The screening data for the guide sequences in Table 1 in all five cell lines are listed below (Table 4 through 11).

TTR [3] = test: TTR editing in primary human hepatocytes electroporated with Spy Cas9 protein loaded with dgRNAs (Table 7); format: cell-based; details: dgRNA electroporated with Spy Cas9 protein (RNP)
Procedure: as §1, §2, §3, §4, §5, §6, §7, §8

TTR [4] = test: TTR editing in primary human hepatocytes transfected with Spy Cas9 mRNA and dgRNAs (Table 9); format: cell-based; details: dgRNA co-transfected with Spy Cas9 mRNA (SEQ ID NO:2)
Procedure: as §1
Lipofectamine RNAiMax (ThermoFisher, Cat. 13778150) based transfections were conducted as per the manufacturer's protocol. Cells were sequentially transfected with a lipoplex containing Spy Cas9 mRNA (100 ng), Lipofectamine RNAiMax (0.4 μL/well) and OptiMem followed by a separate lipoplex containing crRNA (25 nM) and tracer RNA (25 nM) or sgRNA (25 nM), Lipofectamine RNAiMax (0.4 μL/well) and OptiMem.
as §4, §5, §6, §7, §9, §10

TTR [5] = test: TTR editing in HUH7 cells transfected with Spy Cas9 mRNA and dgRNAs (Table 5); format: cell-based, human; details: HUH7 cells co-transfected with Spy Cas9 mRNA (SEQ ID NO:2) and dgRNAs
Procedure: HUH7 cell line. The human hepatocellular carcinoma cell line HUH7 (Japanese Collection of Research Bioresources Cell Bank, Cat. JCRB0403) was cultured in DMEM media supplemented with 10% fetal bovine serum. Cells were plated on at a density of 15,000 cells/well in a 96-well plate 20 hours prior to transfection. Cells were transfected with Lipofectamine MessengerMAX (ThermoFisher, Cat. LMRNA003) per the manufacturer's protocol. Cells were sequentially transfected with a lipoplex containing Spy Cas9 mRNA (100 ng), MessengerMAX (0.3 μL/well) and OptiMem followed by a separate lipoplex containing individual crRNA (25 nM), tracer RNA (25 nM), MessengerMAX (0.3 μL/well) and OptiMem.
as §4, §5, §6, §7, §9, §10

TTR [6] = test: TTR editing in primary human hepatocytes transfected with Spy Cas9 protein (RNP) loaded with dgRNAs (Table 8); format: cell-based; details: dgRNA transfected with Spy Cas9 protein (RNP)
Procedure: as §1, §2
For RNP lipoplex transfections, cells were transfected with Lipofectamine RNAiMAX (ThermoFisher, Cat. 13778150) per the manufacturer's protocol. Cells were transfected with an RNP containing Spy Cas9 (10 nM), individual guide (10 nM), tracer RNA (10 nM), Lipofectamine RNAiMAX (1.0 μL/well) and OptiMem. RNP formation was performed as described above.
as §4, §5, §6, §7, §9
Guides in dgRNA format targeting human TTR and the cynomologus matched sequences were delivered to HEK293 Cas9, HUH7 and HepG2 cell lines, as well as primary human hepatocytes and primary cynomolgus monkey hepatocytes as described in Example 1. […]

TTR [7] = test: TTR editing in HepG2 cells transfected with Spy Cas9 mRNA and dgRNAs (Table 6); format: cell-based, human; details: HepG2 cells co-transfected with Spy Cas9 mRNA (SEQ ID NO:2) and dgRNAs
Procedure: HepG2 cell line. The human hepatocellular carcinoma cell line HepG2 (American Type Culture Collection, Cat. HB-8065) was cultured in DMEM media supplemented with 10% fetal bovine serum. Cells were counted and plated on Bio-coat collagen I coated 96-well plates (ThermoFisher, Cat. 877272) at a density of 10,000 cells/well in a 96-well plate 24 hours prior to transfection. Cells were transfected with Lipofectamine 2000 (ThermoFisher, Cat. 11668019) per the manufacturer's protocol. Cells were sequentially transfected with lipoplex containing Spy Cas9 mRNA (100 ng), Lipofectamine 2000 (0.2 μL/well) and OptiMem followed by a separate lipoplex containing individual crRNA (25 nM), tracer RNA (25 nM), Lipofectamine 2000 (0.2 μL/well) and OptiMem.
as §4, §5, §6, §7, §9, §10

In the case of “AUACCAGUCCAGCGAGGCAG (tested as dual guide RNA, chemistry not given here) [CR005366]”, the “Avg % Deletion” value (TTR [1]) is reported as 76.67%, the “Avg % Edit” value (TTR [1]) is reported as 77.00% and the “Avg % Insert” value (TTR [1]) is reported as 0.33%.

With “AAAGUUCUAGAUGCCGUCCG (tested as dual guide RNA, chemistry not given here) [CR005369]” the “Avg % Deletion” value (TTR [1]) was 33.92%, the “Avg % Edit” value (TTR [1]) was 42.01% and the “Avg % Insert” value (TTR [1]) was 8.09%.

In the case of “AAAAGGCUGCUGAUGAGACC (tested as dual guide RNA, chemistry not given here) [CR005372]”, the “Avg % Deletion” value (TTR [1]) is reported as 17.16%, the “Avg % Edit” value (TTR [1]) is reported as 17.98% and the “Avg % Insert” value (TTR [1]) is reported as 0.83%.

“AAGUGACUUCCAGUAAGAUU (tested as dual guide RNA, chemistry not given here) [CR005371]” was tested, and the “Avg % Deletion” value (TTR [1]) was 8.10%, the “Avg % Edit” value (TTR [1]) was 8.42% and the “Avg % Insert” value (TTR [1]) was 0.31%.

With “AAAGGCUGCUGAUGAGACCU (tested as dual guide RNA, chemistry not given here) [CR005364]” the “Avg % Deletion” value (TTR [1]) was 27.11%, the “Avg % Edit” value (TTR [1]) was 27.70% and the “Avg % Insert” value (TTR [1]) was 0.58%.

With “CCUCCUCUGCCUCGCUGGAC (tested as dual guide RNA, chemistry not given here) [CR005368]” the “Avg % Deletion” value (TTR [1]) was 27.27%, the “Avg % Edit” value (TTR [1]) was 27.60% and the “Avg % Insert” value (TTR [1]) was 0.33%.

With “CAUUGACAGCAGGACUGCCU (tested as dual guide RNA, chemistry not given here) [CR005365]” the “Avg % Deletion” value (TTR [1]) was 64.85%, the “Avg % Edit” value (TTR [1]) was 64.94% and the “Avg % Insert” value (TTR [1]) was 0.10%.

With “CCAGUCCAGCGAGGCAGAGG (tested as dual guide RNA, chemistry not given here) [CR005367]” the “Avg % Deletion” value (TTR [1]) was 50.26%, the “Avg % Edit” value (TTR [1]) was 50.79% and the “Avg % Insert” value (TTR [1]) was 0.53%.

“ACACAAAUACCAGUCCAGCG (tested as dual guide RNA, chemistry not given here) [CR000689]” was tested, and the “Avg % Deletion” value (TTR [1]) was 6.30%, the “Avg % Edit” value (TTR [1]) was 24.41% and the “Avg % Insert” value (TTR [1]) was 18.11%.

In the case of “CACAUGCACGGCCACAUUGA (tested as dual guide RNA, chemistry not given here) [CR003350]”, the “Avg % Deletion” value (TTR [2]) is reported as 16.77%, the “Avg % Edit” value (TTR [2]) is reported as 22.31% and the “Avg % Insert” value (TTR [2]) is reported as 5.54%. The “Avg % Deletion” value (TTR [3]) was 5.73%, the “Avg % Edit” value (TTR [3]) was 28.13% and the “Avg % Insert” value (TTR [3]) was 22.40%. The “Avg % Deletion” value (TTR [4]) was 10.33%, the “Avg % Edit” value (TTR [4]) was 26.63% and the “Avg % Insert” value (TTR [4]) was 16.33%. The “Avg % Deletion” value (TTR [5]) was 41.64%, the “Avg % Edit” value (TTR [5]) was 52.91% and the “Avg % Insert” value (TTR [5]) was 13.43%. For the same sequence, the “Avg % Deletion” value (TTR [6]) was 5.07%, the “Avg % Edit” value (TTR [6]) was 24.84% and the “Avg % Insert” value (TTR [6]) was 19.77%. For the same sequence, the “Avg % Deletion” value (TTR [7]) was 4.44%, the “Avg % Edit” value (TTR [7]) was 29.60% and the “Avg % Insert” value (TTR [7]) was 25.16%.

In the case of “ACCUGGGAGCCAUUUGCCUC (tested as dual guide RNA, chemistry not given here) [CR003354]”, the “Avg % Deletion” value (TTR [2]) is reported as 15.90%, the “Avg % Edit” value (TTR [2]) is reported as 18.46% and the “Avg % Insert” value (TTR [2]) is reported as 2.56%. For the same sequence, the “Avg % Deletion” value (TTR [3]) was 0.03%, the “Avg % Edit” value (TTR [3]) was 2.50% and the “Avg % Insert” value (TTR [3]) was 2.43%. The “Avg % Deletion” value (TTR [4]) was 0.13%, the “Avg % Edit” value (TTR [4]) was 2.97% and the “Avg % Insert” value (TTR [4]) was 2.87%. The “Avg % Deletion” value (TTR [5]) was 11.46%, the “Avg % Edit” value (TTR [5]) was 12.27% and the “Avg % Insert” value (TTR [5]) was 1.25%. The “Avg % Deletion” value (TTR [6]) was 0.23%, the “Avg % Edit” value (TTR [6]) was 10.31% and the “Avg % Insert” value (TTR [6]) was 10.07%. For the same sequence, the “Avg % Deletion” value (TTR [7]) was 0.53%, the “Avg % Edit” value (TTR [7]) was 5.36% and the “Avg % Insert” value (TTR [7]) was 4.84%.
